In PubChem BioAssay AID248 (DTP/NCI, 2004):
Several values for one entry are separate records, joined by “and”; a condition that tells them apart may be missing. Equal values may be shown once. Inconclusive results and toxic doses are left out. Rule as the data show it: active = T/C of 150% or more; inactive = T/C below 125%.

System: L1210 leukemia ip in BDF1 mice, survival T/C
Test: NCI In Vivo Anticancer Drug Screen. Data for tumor model L1210 Leukemia (intraperitoneal) in B6D2F1 (BDF1) mice
Conditions: endpoint: mean survival time, higher = longer survival
Outline: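 Survival endpoint. Drug-treated group vs vehicle group, expressed as T divided by C. Tumor passaged by transplantation.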

[1] = dose: 100.0 mg/kg/injection, schedule: Q04DX003 (ip), vehicle: Klucel (hydroxypropylcellulose) (HPC)
[2] = dose: 200.0 mg/kg/injection, schedule: Q04DX003 (ip), vehicle: Klucel (hydroxypropylcellulose) (HPC)
[3] = dose: 400.0 mg/kg/injection, schedule: Q04DX003 (ip), vehicle: Klucel (hydroxypropylcellulose) (HPC)
[4] = dose: 5.0 mg/kg/injection, schedule: Q01DX001 (ip), vehicle: saline
[5] = dose: 10.0 mg/kg/injection, schedule: Q01DX001 (ip), vehicle: saline
[6] = dose: 20.0 mg/kg/injection, schedule: Q01DX001 (ip), vehicle: saline

Measured: T/C

CCCCCCCCCCCCCCCCP(=O)(OCCOCCCCCC)OCCOCCCCCC
inactive: dose: 12.5 mg/kg/injection, schedule: Q01DX009 (ip), vehicle: acetone 93 % of control | dose: 12.5 mg/kg/injection, schedule: Q04DX003 (ip), vehicle: acetone 95 % of control | dose: 25.0 mg/kg/injection, schedule: Q01DX009 (ip), vehicle: acetone 100 % of control | dose: 25.0 mg/kg/injection, schedule: Q04DX003 (ip), vehicle: acetone 109 % of control | dose: 50.0 mg/kg/injection, schedule: Q01DX009 (ip), vehicle: acetone 93 % of control | dose: 50.0 mg/kg/injection, schedule: Q04DX003 (ip), vehicle: acetone 106 % of control

CCOC(=O)c1ccc(NC(=O)Oc2ccc(SC)cc2)cc1
inactive: dose: 100.0 mg/kg/injection, schedule: Q01DX009 (ip), vehicle: Klucel (hydroxypropylcellulose) (HPC) 90 % of control | dose: 200.0 mg/kg/injection, schedule: Q01DX009 (ip), vehicle: Klucel (hydroxypropylcellulose) (HPC) 94 % of control | dose: 400.0 mg/kg/injection, schedule: Q01DX009 (ip), vehicle: Klucel (hydroxypropylcellulose) (HPC) 94 % of control

O=C(O)c1ccc(/C=N\Nc2ccccc2)cc1
inactive: dose: 50.0 mg/kg/injection, schedule: Q04DX003 (ip), vehicle: Klucel (hydroxypropylcellulose) (HPC) 95 % of control | [1] 106 % of control | [2] 100 % of control | [3] 97 % of control

O=C(O)C1=CC2C=C(Cl)C=CC2OC1=O (centres undefined)
inactive: [4] 95 % of control | [5] 93 % of control | [6] 96 % of control | dose: 40.0 mg/kg/injection, schedule: Q01DX001 (ip), vehicle: saline 96 % of control | dose: 80.0 mg/kg/injection, schedule: Q01DX001 (ip), vehicle: saline 96 % of control | dose: 100.0 mg/kg/injection, schedule: Q01DX001 (ip), vehicle: saline 111 % of control | dose: 200.0 mg/kg/injection, schedule: Q01DX001 (ip), vehicle: saline 100 % of control

C/C(=N\NC(N)=S)C1OCCc2ccccc21 (centres undefined)
inactive: [4] 105 % of control | [5] 90 % of control | [6] 98 % of control

COc1ccc(C=Nc2cccc3ccccc23)cc1
inactive: [1] 98 % of control | [2] 96 % of control | [3] 103 % of control

N#CC(c1ccccc1)C(C/C(=N\O)c1ccccc1)c1ccccc1 (centres undefined)
inactive: dose: 100.0 mg/kg/injection, schedule: Q04DX002 (ip), vehicle: Klucel (hydroxypropylcellulose) (HPC) 111 % of control | dose: 200.0 mg/kg/injection, schedule: Q04DX002 (ip), vehicle: Klucel (hydroxypropylcellulose) (HPC) 100 % of control | dose: 400.0 mg/kg/injection, schedule: Q04DX002 (ip), vehicle: Klucel (hydroxypropylcellulose) (HPC) 96 % of control

NC(=S)N/N=C/c1cccc2ccccc12
inactive: dose: 100.0 mg/kg/injection, schedule: Q04DX002 (ip), vehicle: gum acacia 91 % of control | dose: 200.0 mg/kg/injection, schedule: Q04DX002 (ip), vehicle: gum acacia 98 % of control | dose: 400.0 mg/kg/injection, schedule: Q04DX002 (ip), vehicle: gum acacia 117 % of control

NNC(=S)Nc1ccccc1
inactive: dose: 5.0 mg/kg/injection, schedule: Q01DX009 (ip), vehicle: saline with Tween-80 98 % of control

CC(C)(O)CC(O)(C(F)(F)F)C(F)(F)F
inactive: dose: 6.0 mg/kg/injection, schedule: Q01DX009 (ip), vehicle: other 94 % of control | dose: 12.0 mg/kg/injection, schedule: Q01DX009 (ip), vehicle: other 100 % of control | dose: 25.0 mg/kg/injection, schedule: Q01DX009 (ip), vehicle: other 105 % of control and 106 % of control and 86 % of control | dose: 50.0 mg/kg/injection, schedule: Q01DX009 (ip), vehicle: other 97 % of control | dose: 100.0 mg/kg/injection, schedule: Q01DX009 (ip), vehicle: other 98 % of control

CCCNCCCN
inactive: dose: 25.0 mg/kg/injection, schedule: Q01DX009 (ip), vehicle: saline 100 % of control | dose: 25.0 mg/kg/injection, schedule: Q04DX003 (ip), vehicle: saline 93 % of control | dose: 50.0 mg/kg/injection, schedule: Q01DX009 (ip), vehicle: saline 105 % of control | dose: 50.0 mg/kg/injection, schedule: Q04DX003 (ip), vehicle: saline 101 % of control | dose: 100.0 mg/kg/injection, schedule: Q04DX003 (ip), vehicle: saline 94 % of control and 102 % of control | dose: 200.0 mg/kg/injection, schedule: Q04DX003 (ip), vehicle: saline 88 % of control

O=c1ccc2c(c1)oc1cccc3c(=O)c4ccccc4c2c13
inactive: dose: 50.0 mg/kg/injection, schedule: Q01DX009 (ip), vehicle: saline with Tween-80 97 % of control | dose: 100.0 mg/kg/injection, schedule: Q01DX009 (ip), vehicle: saline with Tween-80 101 % of control

Nc1nc(N)c2nc(CNc3ccc(Cl)c(Cl)c3)cnc2n1
inactive: dose: 1.0 mg/kg/injection, schedule: Q01DX009 (ip), vehicle: saline 103 % of control | dose: 2.0 mg/kg/injection, schedule: Q01DX009 (ip), vehicle: saline 101 % of control | dose: 4.0 mg/kg/injection, schedule: Q01DX009 (ip), vehicle: saline 94 % of control | dose: 4.0 mg/kg/injection, schedule: Q04DX003 (ip), vehicle: saline 90 % of control | dose: 8.0 mg/kg/injection, schedule: Q01DX009 (ip), vehicle: saline 90 % of control | dose: 8.0 mg/kg/injection, schedule: Q04DX003 (ip), vehicle: saline 100 % of control | dose: 16.0 mg/kg/injection, schedule: Q01DX009 (ip), vehicle: saline 87 % of control | dose: 16.0 mg/kg/injection, schedule: Q04DX003 (ip), vehicle: saline 92 % of control | dose: 32.0 mg/kg/injection, schedule: Q04DX003 (ip), vehicle: saline 97 % of control | dose: 64.0 mg/kg/injection, schedule: Q04DX003 (ip), vehicle: saline 89 % of control

CCS(=O)(=O)CS(=O)(=O)c1ccc(C)cc1
inactive: dose: 100.0 mg/kg/injection, schedule: Q01DX001 (ip), vehicle: Klucel (hydroxypropylcellulose) (HPC) 103 % of control | dose: 200.0 mg/kg/injection, schedule: Q01DX001 (ip), vehicle: Klucel (hydroxypropylcellulose) (HPC) 103 % of control | dose: 400.0 mg/kg/injection, schedule: Q01DX001 (ip), vehicle: Klucel (hydroxypropylcellulose) (HPC) 103 % of control

C[C@]12CC[C@@H]3c4ccc(O)cc4CC[C@H]3[C@@H]1C[C@@H](O)[C@@H]2O
inactive: dose: 25.0 mg/kg/injection, schedule: Q01DX001 (sc), vehicle: steriod suspending solution 104 % of control | dose: 50.0 mg/kg/injection, schedule: Q01DX001 (sc), vehicle: steriod suspending solution 107 % of control | dose: 100.0 mg/kg/injection, schedule: Q01DX001 (sc), vehicle: steriod suspending solution 109 % of control | dose: 125.0 mg/kg/injection, schedule: Q04DX003 (sc), vehicle: steriod suspending solution 100 % of control | dose: 200.0 mg/kg/injection, schedule: Q01DX001 (sc), vehicle: steriod suspending solution 106 % of control | dose: 250.0 mg/kg/injection, schedule: Q04DX003 (sc), vehicle: steriod suspending solution 105 % of control | dose: 500.0 mg/kg/injection, schedule: Q04DX003 (sc), vehicle: steriod suspending solution 100 % of control

CCOC(=O)c1cc(N/N=C2/CCCNC2=O)c[nH]1
inactive: dose: 100.0 mg/kg/injection, schedule: Q01DX001 (ip), vehicle: carboxymethylcellulose (CMC) 99 % of control | dose: 200.0 mg/kg/injection, schedule: Q01DX001 (ip), vehicle: carboxymethylcellulose (CMC) 103 % of control | dose: 400.0 mg/kg/injection, schedule: Q01DX001 (ip), vehicle: carboxymethylcellulose (CMC) 94 % of control
